Among the data in BindingDB's records for patent US10202378 (Genentech, 2019) are IC50 values, retold here.

The target of assay [1] is T1, Transcription initiation factor TFIID subunit 1 [1504-1635] (Homo sapiens, UniProt P21675).
T1 construct: 1504-1635
T1 sequence (P21675 whole entry): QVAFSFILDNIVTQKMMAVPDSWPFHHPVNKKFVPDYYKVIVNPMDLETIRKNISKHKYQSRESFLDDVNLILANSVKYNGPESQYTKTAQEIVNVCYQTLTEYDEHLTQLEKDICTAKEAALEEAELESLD
The assay can be described thus: TR-FRET Binding Assay. As for the experimental part: After a 10 minute incubation at room temperature, biotin-ligand (0.04 uM final) was added. […] After forty minutes of equilibration at room temperature, the plates were read on an Envision instrument and IC50s calculated using a four parameter logistic model (XLFIT).
Background: In TR-FRET formats the signal depends on donor and acceptor labels being close together.

Assay [2] addresses T2, Transcription initiation factor TFIID subunit 1 [1381-1497] (Homo sapiens, UniProt P21675).
T2 construct: 1381-1497
T2 sequence (P21675 whole entry): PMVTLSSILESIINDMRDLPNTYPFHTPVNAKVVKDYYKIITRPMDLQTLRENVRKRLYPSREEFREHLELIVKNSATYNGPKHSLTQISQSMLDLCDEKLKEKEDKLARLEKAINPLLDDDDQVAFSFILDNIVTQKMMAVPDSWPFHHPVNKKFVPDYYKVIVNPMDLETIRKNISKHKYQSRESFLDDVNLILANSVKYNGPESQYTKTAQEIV
Kind of assay: TAF1-BD1 TR-FRET Binding Assay. On the procedure: Specifically, in a 384 well ProxiPlate, TAF1-BDI (0.08 uM final) in 50 mM HEPES (pH 7.5; final), 50 mM NaCl (final), 1 mM TCEP (final), 0.1 mg/mL BSA (final), and 0.069 mM Brij-35 (final) was added either in the presence of DMSO (final 0.2% DMSO) or compound dilution series in DMSO. After a 10 minute incubation at room temperature, biotin-ligand (0.08 uM final) was added. After 10 minutes incubation at room temperature, a mixture Eu-W1024 Anti-6×His antibody (Perkin Elmer ADO 110) and SureLight Streptavidin-Allophycocyanin (SA-APC, Perkin Elmer CR130-100) were added to final concentrations of 0.2 nM antibody and 0.05 uM SA-APC, respectively. After forty minutes of equilibration at room temperature, the plates were read on an Envision instrument and IC50s calculated using a four parameter logistic model (XLFIT).

What is called IC50 is the point on the concentration scale where inhibition reaches its midpoint. A higher IC50 goes with weaker potency. Take `CCOC(=O)c1c(C)[nH]c2c(=O)n(C)cc(C#CC(O)(c3ccc(N(C)C)cc3)C(F)(F)F)c12` (stereo unspecified) [US10202378, Example 3]: the IC50 in assay [1] worked out at 0.0863 µM; in assay [2] it was 0.209 µM.
In the same order, the values of `CC(=O)NCCCOC(=O)c1c(C)[nH]c2c(=O)n(C)cc(C#CC(C)(O)C3CC3)c12` (stereo unspecified) [US10202378, Example 140] are 0.0375 µM and 0.35 µM.
Consider `CC(=O)N1CCC(COC(=O)c2c(C)[nH]c3c(=O)n(C)cc(C#CC(C)(C)O)c23)CC1` [US10202378, Example 144], for which the IC50 worked out at 0.0201 µM in assay [1] and 0.267 µM in assay [2].
`CCC(C)C(C)OC(=O)c1c(C)[nH]c2c(=O)n(C)cc(C#CC(C)(C)O)c12` (stereo unspecified) [US10202378, Example 145]: the IC50 in assay [1] was 0.0533 µM; in assay [2] it was 0.272 µM.
Take `CCOC(=O)c1c(C)[nH]c2c(=O)n(C)cc(C#CC(C)(O)CNc3ccccc3)c12` (stereo unspecified) [US10202378, Example 14]: the IC50 in assay [1] is 14.8 µM; in assay [2], more than 20 µM.
As to `Cc1[nH]c2c(=O)n(C)cc(C#CC(C)(O)C3CC3)c2c1-c1nnc(CO)o1` (stereo unspecified) [US10202378, Example 206], the half-maximal inhibitory concentration (IC50) was found to be 0.0735 µM in assay [1] and 0.425 µM in assay [2].
For `CCOC(=O)c1c(C)[nH]c2c(=O)n(C)cc(C#CC(C)(O)C3CC3)c12` (stereo unspecified) [US10202378, Example 77], the IC50 was found to be 0.049 µM in assay [1] and 0.243 µM in assay [2].
Take `CCOC(=O)c1c(C)[nH]c2c(=O)n(C)cc(C#CC(C)(O)c3cccc(C)c3)c12` (stereo unspecified) [US10202378, Example 29]: the IC50 in assay [1] amounted to 0.0509 µM; in assay [2], 0.303 µM.
Turning to `CCOC(=O)c1c(C)[nH]c2c(=O)n(C)cc(C#CC(C)(O)c3nccs3)c12` (stereo unspecified) [US10202378, Example 68], the results for the IC50 in assay [1] and in assay [2] were 0.122 µM and 0.521 µM, respectively.
Consider `CCOC(=O)c1c(C)[nH]c2c(=O)n(C)cc(C#CC(C)(O)C3CCOC3)c12` (stereo unspecified) [US10202378, Example 7], for which the IC50 in assay [1] stood at 0.181 µM; in assay [2], 0.607 µM.
For the compound `Cc1[nH]c2c(=O)n(C)cc(C#CC(C)(O)c3ccccc3)c2c1C(=O)OC(C)C` (stereo unspecified) [US10202378, Example 161], the IC50 in assay [1] worked out at 0.0511 µM; in assay [2], 0.274 µM.
Regarding `CCOC(=O)c1c(C)[nH]c2c(=O)n(C)cc(C#CC3(O)CCN(C(=O)CC)CC3)c12` [US10202378, Example 10], the IC50 in assay [1] is 0.0589 µM; in assay [2], 2.23 µM.
For `CCOC(=O)c1c(C)[nH]c2c(=O)n(C)cc(C#CC(C)(O)CO)c12` (stereo unspecified) [US10202378, Example 66], the figures for the IC50 in assay [1] and in assay [2] were 0.1 µM and 0.798 µM, respectively.
Regarding `CCOC(=O)c1c(C)[nH]c2c(=O)n(C)cc(C#CC3(O)CCN(C(C)=O)CC3)c12` [US10202378, Example 11], the results for the half-maximal inhibitory concentration (IC50) in assay [1] and in assay [2] were 0.08 µM and 1.49 µM, respectively.
Consider `CCOC(=O)c1c(C)[nH]c2c(=O)n(C)cc(C#CC(C)(O)C3(C)CC3)c12` (stereo unspecified) [US10202378, Example 4], for which the IC50 in assay [1] was determined as 0.0727 µM; in assay [2], 0.352 µM.
As for `Cc1[nH]c2c(=O)n(C)cc(C#CC(C)(C)O)c2c1C(=O)OC(C)C(C)C` (stereo unspecified) [US10202378, Example 152], the results for the IC50 in assay [1] and in assay [2] were 0.0536 µM and 0.235 µM, respectively.
Take `Cc1cc([C@](C)(O)C#Cc2cn(C)c(=O)c3[nH]c(C)c(C(=O)OC(C)C(C)C)c23)no1` (stereo partly specified) [US10202378, Example 142]: the IC50 in assay [1] was found to be 0.0528 µM; in assay [2], 0.16 µM.
As to `CCOC(=O)c1c(C)[nH]c2c(=O)n(C)cc(C#CC(C)(O)CC)c12` (stereo unspecified) [US10202378, Example 65], the IC50 amounted to 0.135 µM in assay [1] and 0.826 µM in assay [2].
Regarding `CCOC(=O)c1c(C)[nH]c2c(=O)n(CC3CC3)cc(C#CC(C)(C)O)c12` [US10202378, Example 52], the values for the IC50 in assay [1] and in assay [2] were 0.155 µM and 8.66 µM, respectively.
As for `Cc1[nH]c2c(=O)n(C)cc(C#CC(C)(C)O)c2c1C(=O)OCC1CC1` [US10202378, Example 155], the IC50 was determined as 0.0528 µM in assay [1] and 0.274 µM in assay [2].
As to `CCOC(=O)c1c(C)[nH]c2c(=O)n(C)cc(C#CC(C)(C)N)c12` [US10202378, Example 67], the IC50 was 4.11 µM in assay [1] and 5.21 µM in assay [2].
In the same order, the values of `CN(C)C(=O)c1c[nH]c2c(=O)n(C)cc(C#CC(C)(C)O)c12` [US10202378, Example 171] are 1.73 µM and 4.42 µM.
In the same order, the values of `CCC(C)(C)OC(=O)c1c(C)[nH]c2c(=O)n(C)cc(C#CC(C)(O)C3CC3)c12` (stereo unspecified) [US10202378, Example 138] are 0.0479 µM and 0.251 µM.
